Assays:
Conditions in all cases: mouse, in vivo
[1] = Compound was tested for its toxicity after oral administration to mice in experiment 1
[2] = Compound was tested for its toxicity after oral administration to mice in experiment 2
[3] = Compound was tested for its toxicity after intravenous administration to mice in experiment 1
[4] = Compound was tested for its toxicity after intravenous administration to mice in experiment 2
[5] = Compound was tested for its toxicity after intravenous administration to mice
[6] = Compound was tested for its toxicity after intravenous administration in mice
[7] = Compound was tested for its toxicity after oral administration in mice
[8] = The activity was measured in mice after oral administration of the compound; format: ADME

Compound | LD50 [1] [mg/kg] | LD50 [2] [mg/kg] | LD50 [3] [mg/kg] | LD50 [4] [mg/kg] | further results
CC(C)(C)NCC(O)COc1ccccc1C#N (stereo unspecified) [BUNITROLOL] | 1350 | 998 | – | – | –
CC(C)NCC(O)c1ccc2ccccc2c1 (stereo unspecified) [PRONETALOL] | 512 | 486 | 46 | 38 | –
CC(C)(C)NCC(O)COc1cccc2c1SCCC2 (stereo unspecified) [TERTATOLOL] | – | – | 37 | 34.1 | –
CC(C)(Sc1cc(C(C)(C)C)c(O)c(C(C)(C)C)c1)Sc1cc(C(C)(C)C)c(O)c(C(C)(C)C)c1 [PROBUCOL] | > 5000 | – | – | – | LD50 [5]: 25 mg/kg
CCC(C)NCC(O)c1ccc2c(c1)CCCC2 (stereo unspecified) [BUTIDRINE] | 235 | 212 | 20.2 | 24.6 | –
CCN(CC)C(=O)Nc1ccc(OCC(O)CNC(C)(C)C)c(C(C)=O)c1 (stereo unspecified) [CELIPROLOL] | 1830 | 1770 | 56.2 | 42.8 | –
COCCc1ccc(OCC(O)CNC(C)C)cc1 (stereo unspecified) [METOPROLOL] | 2090 | 3060 | 118 | 292 | –
Cc1ccc(OCC(O)CNC(C)(C)C)c2oc(=O)ccc12 (stereo unspecified) [BUCUMOLOL] | 676 | 828 | 33.1 | 46.8 | –
N/C(CC(O)COc1cccc2ccccc12)=N/O (stereo unspecified) [NADOXOLOL] | 1000 | 710 | 180 | 119 | –
CC(C)(C)NC[C@H](O)COc1nsnc1N1CCOCC1 [TIMOLOL] | 1190 | 1460 | – | – | –
CC(C)NCC(O)COc1ccc(CCOCC2CC2)cc1 (stereo unspecified) [BETAXOLOL] | 944 | 625 | 37 | 38 | –
C=CCc1ccccc1OCC(O)CNC(C)C (stereo unspecified) [ALPRENOLOL] | 278 | 415 | – | – | –
CCc1cccc2cc(C(O)CNC(C)(C)C)oc12 (stereo unspecified) [BUFURALOL] | 117 | 273 | 29.7 | 25.9 | –
CCCCCC(O)C1C(=O)OC(C)C(O)/C=C/C=C/C=C/C=C/C=C(\C)C(O)CC(O)CC(O)CC(O)CC(O)CC(O)CC1O (stereo unspecified) | – | – | – | – | LD50 [6]: 5 mg/kg; LD50 [7]: 18 mg/kg
Cc1cc2c(OCC(CNC(C)(C)C)OC(=O)c3ccccc3)cccc2[nH]1 (stereo unspecified) [BOPINDOLOL] | – | – | 17 | 15.9 | –
CC(CCc1ccccc1)NCC(O)c1ccc(O)c(C(N)=O)c1 (stereo unspecified) [LABETALOL] | 1450 | 1370 | 47 | 51.1 | –
CC(C)(C)NCC(O)COc1cccc2c1C[C@H](O)[C@H](O)C2 (stereo partly specified) [NADOLOL] | 4500 | 2710 | – | – | –
CC(C)(C)NCC(O)COc1cccc2c1CCC(=O)N2 (stereo unspecified) [CARTEOLOL] | 810 | 656 | – | 39.4 | –
O=C(O)C1CCc2cc(C3CCCCC3)c(Cl)cc21 (stereo unspecified) | 41 | 252 | – | – | LD50 [6]: 34 mg/kg
CCCC(=O)Nc1ccc(OCC(O)CNC(C)C)c(C(C)=O)c1 (stereo unspecified) [ACEBUTOLOL] | – | – | 76 | 82.2 | –
CC1=C(/C=C/C(C)=C/C=C/C(C)=C/C=C/C=C(C)/C=C/C=C(C)/C=C/C2=C(C)CCCC2(C)C)C(C)(C)CCC1 [BETA CAROTENE] | – | – | – | – | LD50 [8]: 6750 mg/kg; LD50 [7]: 26 mg/kg
CC(C)(C)NCC(O)COc1cccc2c1CCCC2=O (single isomer, unassigned) [LEVOBUNOLOL] | 700 | 798 | 25 | 37.7 | –
CC(=O)c1cc2cccc(OCC(O)CNC(C)C)c2o1 (stereo unspecified) [BEFUNOLOL] | – | – | 102 | 75.1 | –
CC(C)(C)NCC(O)CSc1nc(-c2ccc(C(N)=O)s2)cs1 (stereo unspecified) [AROTINOLOL] | – | – | – | 57.8 | –
CC(C)NCC(O)COc1cccc2c1C=CC2 (stereo unspecified) [INDENOLOL] | – | – | 26 | 32.4 | –
CC(C)(C)NCC(O)COc1ccccc1OCC1CCCO1 (stereo unspecified) [BUFETOLOL] | 409 | 238 | – | – | –
CC(=O)Oc1c(C)cc(OCC(O)CNC(C)C)c(C)c1C (stereo unspecified) [METIPRANOLOL] | – | – | 31 | 38.8 | –
CC(C)(C)NCC(O)COc1ccc(NC(=O)NC2CCCCC2)cc1 (stereo unspecified) [TALINOLOL] | 593 | 1050 | 25 | 25.8 | –
CC(C)NCC(O)c1ccc(NS(C)(=O)=O)cc1 (stereo unspecified) [SOTALOL] | 2600 | 2630 | – | – | –
